Reference: patent publication US6649603B2, “Cyclylamine sulfonamides as β3-adrenergic receptor agonists” (Wyeth, priority 2000, dated 2003)

Experiments:
[1] = biological target: T1, human β3 adrenergic receptor (Homo sapiens, UniProt P13945); experiment: cAMP accumulation (SPA) in CHO cells transfected with human β3 adrenergic receptor; assay type: cell-based; conditions: for EC50 / beta-3 IA (maximal response relative to isoproterenol at 10^-5 M): CHO cells, cAMP; for EC50: 30 min incubation, read-out: beta-3 EC50; for beta-3 IA (maximal response relative to isoproterenol at 10^-5 M): fraction of maximal isoproterenol response
T1 construct: Full length β3 AR clones (402 amino acids) containing the last 6 amino acids of hβ3_AR are prepared; expressed in transfected cells; host or cells: CHO cells
Description: (§1) The ability of compounds of this invention to treat or inhibit disorders related to insulin resistance or hyperglycemia was established with representative compounds of this invention in the following standard pharmacological test procedures, which measured the binding selectivity to the β1, β2, and β3 adrenergic receptors. Binding to the receptors was measured in Chinese Hamster ovary (CHO) cells that were transfected with adrenergic receptors. The following briefly summarizes the procedures used and results obtained.
Cloning of Human β3-AR Genomic DNA: cDNA was constructed by ligating four polymerase chain reaction (PCR) products using the following primers: an ATG-NarI fragment, sense primer 5′-[…]3′ and anti-sense primer 5′[…]3′; a NarI-AccI fragment, 5′[…]3′ as sense and 5′[…]3′ as anti-sense primer; an Accli-Styl fragment, sense primer 5′[…]3′ and anti-sense primer 5′[…]3′ and a Styl-TAG fragment, with sense primer 5′[…]3′ and anti-sense primer 5′[…]3′. The corresponding primer sequences are described in Mantzoros, C. S., et.al., Diabetes 45: 909-914 (1996). The four fragments are ligated into a pUC 18 plasmid (Gibco-BRL) and sequenced. Full length β3 AR clones (402 amino acids) containing the last 6 amino acids of hβ3_AR are prepared with the β3-βARpcDNA3 from ATTC.
(§2) Binding Procedure: Clones expressing receptor levels of 70 to 110 fmoles/mg protein were used in the test procedures. CHO cells were grown in 24-well tissue culture plates in Dulbecco's Modified Eagle Media with 10% fetal bovine serum, MEM non-essential amino acids, Penicillin-Streptompycin and Geneticin. On the day of test procedure, growth medium was replaced with preincubation media (Dulbecco's Modified Eagle Media and incubated for 30 minutes at 37° C. Preincubation medium was replaced with 0.2 ml treatment medium containing DMEM media containing 250 μM IBMX (isobutyl-1-methylxantine) plus 1 mM ascorbic acid with test compound dissolved in DMSO. Test compounds were tested over a concentration range of 10^−9 M to 10^−5 M for β3 cells and 10^−8 to 10^−4 M for β1 and β2 transfected cells. Isoproterenol (10^−5 M) was used as an internal standard for comparison of activity. Cells were incubated at 37° C. on a rocker for 30 min with the β3 cells and 15 min for […]. Incubation was stopped with the addition of 0.2N HCl and neutralized with 2.5N NaOH. The plates, containing the cells and neutralized media, were stored at −20 degrees celsius until ready to test for cAMP using the SPA test kit (Amersham).
(§3) Data Analysis and Results: Data collected from the SPA test procedure were analyzed as per cent of the maximal isoproterenol response at 10^−5 M. Activity curves were plotted using the SAS statistical and graphics software. EC50 values were generated for each compound and the maximal response (IA) developed for each compound is compared to the maximal response of isoproternol at 10^−5 M from the following formula: [formula]

[2] = biological target: T2, human β1-adrenergic receptor (Homo sapiens, UniProt P08588); experiment: cAMP accumulation (SPA) in CHO cells transfected with human β1 adrenergic receptor; assay type: cell-based; conditions: for beta-1 IA (maximal response relative to isoproterenol at 10^-5 M): fraction of maximal isoproterenol response
T2 construct: expressed in transfected cells; host or cells: CHO cells
Description: as §1
(§4) Transfection of CHO cells with β1 and β2 adrenergic receptors: CHO cells were transfected with human β1- or β2-adrenergic receptors as described in Tate, K. M., Eur. J. Biochem., 196:357-361 (1991).
as §2, §3

[3] = biological target: T3, human β2-adrenergic receptor (Homo sapiens, UniProt P07550); experiment: cAMP accumulation (SPA) in CHO cells transfected with human β2 adrenergic receptor; assay type: cell-based; conditions: for beta-2 IA (maximal response relative to isoproterenol at 10^-5 M): fraction of maximal isoproterenol response
T3 construct: expressed in transfected cells; host or cells: CHO cells
Description: as §1, §4, §2, §3

T1 sequence (P13945 whole entry): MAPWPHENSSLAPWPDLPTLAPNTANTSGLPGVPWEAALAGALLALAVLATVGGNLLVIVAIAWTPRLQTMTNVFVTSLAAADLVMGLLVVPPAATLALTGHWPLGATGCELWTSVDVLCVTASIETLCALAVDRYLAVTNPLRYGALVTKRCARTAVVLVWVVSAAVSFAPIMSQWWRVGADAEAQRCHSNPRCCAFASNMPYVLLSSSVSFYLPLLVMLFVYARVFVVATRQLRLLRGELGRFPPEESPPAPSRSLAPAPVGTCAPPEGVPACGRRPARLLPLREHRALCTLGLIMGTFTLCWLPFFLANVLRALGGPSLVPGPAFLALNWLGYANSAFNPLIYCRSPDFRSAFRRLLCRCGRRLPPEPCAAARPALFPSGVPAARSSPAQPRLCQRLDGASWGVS
T3 sequence (P07550 whole entry): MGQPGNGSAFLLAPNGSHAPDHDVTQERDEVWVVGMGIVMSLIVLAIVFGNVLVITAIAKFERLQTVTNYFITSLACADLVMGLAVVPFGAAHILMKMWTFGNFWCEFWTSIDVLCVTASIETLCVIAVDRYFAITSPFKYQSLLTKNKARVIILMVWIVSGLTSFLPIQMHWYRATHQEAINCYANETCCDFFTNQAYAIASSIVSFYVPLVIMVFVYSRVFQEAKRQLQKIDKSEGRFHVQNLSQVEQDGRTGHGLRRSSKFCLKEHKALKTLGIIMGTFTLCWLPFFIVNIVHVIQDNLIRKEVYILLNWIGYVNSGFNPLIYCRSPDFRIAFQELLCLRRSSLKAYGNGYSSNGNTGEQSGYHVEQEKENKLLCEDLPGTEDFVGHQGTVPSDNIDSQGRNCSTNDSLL
T2 sequence (P08588 whole entry): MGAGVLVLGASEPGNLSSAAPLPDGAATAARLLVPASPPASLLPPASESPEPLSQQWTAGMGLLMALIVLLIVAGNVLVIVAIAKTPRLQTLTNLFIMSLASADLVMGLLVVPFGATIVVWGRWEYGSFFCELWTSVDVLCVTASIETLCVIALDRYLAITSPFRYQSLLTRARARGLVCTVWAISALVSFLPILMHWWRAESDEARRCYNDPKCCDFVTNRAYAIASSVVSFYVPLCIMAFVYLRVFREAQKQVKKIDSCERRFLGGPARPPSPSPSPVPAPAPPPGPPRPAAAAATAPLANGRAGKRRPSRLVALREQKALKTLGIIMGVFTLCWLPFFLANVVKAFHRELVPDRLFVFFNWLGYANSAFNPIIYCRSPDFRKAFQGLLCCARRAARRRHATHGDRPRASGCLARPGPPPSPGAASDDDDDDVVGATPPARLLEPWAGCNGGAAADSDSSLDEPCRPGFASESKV

| Structure (SMILES) | melting point [°C] | beta-3 activity at single concentration ([1]; at 10 μM, per cent of maximal isoproterenol response) [% at 10 μM] | beta-1 IA (maximal response relative to isoproterenol at 10^-5 M) [2] | beta-2 IA (maximal response relative to isoproterenol at 10^-5 M) [3] | EC50 [1] [nM] | beta-3 IA (maximal response relative to isoproterenol at 10^-5 M) [1] | EC50 ([2]; read-out: beta-1 EC50) [nM] | EC50 ([3]; read-out: beta-2 EC50) [nM] |
| --- | --- | --- | --- | --- | --- | --- | --- | --- |
| CCCCOc1ccc(S(=O)(=O)N2CC(NCC(O)c3ccc(O)c(NS(C)(=O)=O)c3)C2)cc1 (stereo not shown) [Example 5, N-(5-{2-[1-(4-Butoxy-benzenesulfonyl)-azetidin-3-ylamino]-1-hydroxy-ethyl)-2-hydroxy-phenyl)-methanesulfonamide] | 67 to 70 | 78 | – | – | – | – | – | – |
| COc1ccc(S(=O)(=O)N2CCC(NC[C@H](O)COc3cccc4[nH]c5ccccc5c34)CC2)cc1OC [Example 21, (2S)-1-(9H-Carbazol-4-yloxy)-3-[1-(3,4-dimethoxy-benzenesulfonyl)-piperidin-4-ylamino]-propan-2-ol] | – | – | (0.1) | (0.02) | 20 | 1.2 | – | – |
| CCCCOc1ccc(S(=O)(=O)N2CC(NCC(O)COc3cccc4[nH]c5ccccc5c34)C2)cc1 (stereo not shown) [Example 3, 1-[1-(4-Butoxy-benzenesulfonyl)-azetidin-3-ylamino]-3-(9H-carbazol-4-yloxy)-propan-2-ol] | 81 to 84 | – | – | – | – | – | – | – |
| COc1ccc(S(=O)(=O)N2CCC(NC[C@H](O)COc3cccc4[nH]c(=O)[nH]c34)CC2)cc1OC [Example 20, 4-{(2S)-3-[1-(3,4-Dimethoxy-benzenesulfonyl)-piperidin-4-ylamino]-2-hydroxy-propoxy}-1,3-dihydro-benzoimidazol-2-one] | – | – | (0.3) | (0.01) | 80 | 0.87 | – | – |
| CS(=O)(=O)Nc1cc(C(O)CNC2CCN(S(=O)(=O)c3ccc4oc5ccccc5c4c3)CC2)ccc1O (stereo not shown) [Example 23, N-(5-(2-[1-(Dibenzofuran-2-sulfonyl)-piperidin-4-ylamino]-1-hydroxy-ethyl}-2-hydroxy-phenyl)-methanesulfonamide] | – | – | – | – | 100 | 0.88 | – | – |
| COc1ccc(S(=O)(=O)N2CCC(NC[C@H](O)COc3cccc4[nH]c5ccccc5c34)CC2)cc1 [Example 15, (2S)-1-(9H-Carbazol-4-yloxy)-3-[1-(4-methoxy-benzenesulfonyl)-piperidin-4-ylamino]-propan-2-ol] | – | – | (0.1) | (0.03) | 60 | 0.88 | – | – |
| CCCCOc1ccc(S(=O)(=O)N2CC(NC[C@H](O)COc3ccc(O)cc3)C2)cc1 [Example 1, 4-{(2S)-3-[1-(4-Butoxy-benzenesulfonyl)-azetidin-3-ylamino]-2-hydroxy-propoxy}-phenol] | 55 to 58 | – | 0.49 | 0.39 | 30 | 0.82 | 1600 | 900 |
| CCCCOc1ccc(S(=O)(=O)N2CCC(NC[C@H](O)COc3cccc4[nH]c5ccccc5c34)CC2)cc1 [Example 14, (2S)-1-[1-(4-Butoxy-benzenesulfonyl)-piperidin-4-ylamino]-3-(9H-carbazol-4-yloxy)-propan-2-ol] | – | – | (0.04) | (0.07) | 850 | 0.74 | – | – |
| O=c1[nH]c2cccc(OC[C@@H](O)CNC3CCN(S(=O)(=O)c4cccc5nsnc45)CC3)c2[nH]1 [Example 8, 4-{(2S)-3-[1-(Benzo[1,2,5]thiadiazole-4-sulfonyl)-piperidin-4-ylamino]-2-hydroxy-propoxy}-1,3-dihydro-benzoimidazol-2-one] | – | – | – | – | 800 | 0.75 | – | – |
| CCCCOc1ccc(S(=O)(=O)N2CCC(NC[C@H](O)COc3cccc4[nH]c(=O)[nH]c34)CC2)cc1 [Example 9, 4-((2S)-3-[1-(4-Butoxy-benzenesulfonyl)-piperidin-4-ylamino]-2-hydroxy-propoxy}-1,3-dihydro-benzoimidazol-2-one] | – | – | – | – | 500 | 0.8 | – | – |
| CCCCOc1ccc(S(=O)(=O)N2CCC(NC[C@H](O)COc3cccc4[nH]c5ccccc5c34)C2)cc1 (stereo partly drawn) [Example 7, (2S)-1-[1-(4-Butoxy-benzenesulfonyl)-pyrrolidin-3-ylamino]-3-(9H-carbazol-4-yloxy)-propan-2-ol] | 118 to 119 | – | – | – | – | – | – | – |
| CCCCOc1ccc(S(=O)(=O)N2CCC(NCC(O)c3ccc(O)c(NS(C)(=O)=O)c3)C2)cc1 (stereo not shown) [Example 6, N-(5-{2-[1-(4-Butoxy-benzenesulfonyl)-pyrrolidin-3-ylamino]-1-hydroxy-ethyl}-2-hydroxy-phenyl)-methanesulfonamide] | 95 to 98 | – | – | – | – | – | – | – |
